Results from BindingDB's records for doi:10.7270/Q2805129 (Vanderbilt Screening Center For Gpcrs, Ion Channels and …, 2009).

Biological target: T1, Muscarinic acetylcholine receptor M5 (Homo sapiens, UniProt P08912)
T1 sequence (P08912 whole entry): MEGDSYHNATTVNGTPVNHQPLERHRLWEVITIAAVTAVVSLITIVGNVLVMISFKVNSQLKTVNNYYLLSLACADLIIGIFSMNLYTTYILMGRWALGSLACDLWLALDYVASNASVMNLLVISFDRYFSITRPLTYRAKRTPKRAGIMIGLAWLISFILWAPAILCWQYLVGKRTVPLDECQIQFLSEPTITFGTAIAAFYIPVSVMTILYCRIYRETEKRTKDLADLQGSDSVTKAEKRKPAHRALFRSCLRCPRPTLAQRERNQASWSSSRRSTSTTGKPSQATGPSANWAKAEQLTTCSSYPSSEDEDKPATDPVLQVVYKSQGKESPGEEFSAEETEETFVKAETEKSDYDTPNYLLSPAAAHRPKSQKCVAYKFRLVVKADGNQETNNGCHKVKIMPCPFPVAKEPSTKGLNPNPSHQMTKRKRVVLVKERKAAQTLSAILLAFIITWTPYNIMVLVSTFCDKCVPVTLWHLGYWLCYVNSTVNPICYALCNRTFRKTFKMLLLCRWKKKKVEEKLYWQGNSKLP
Test: compound effect on ACh competition at M5, biochemical, [3H]N-methylscopolamine, acetylcholine (AID 2194)

SMILES: COc1ccc(CN2C(=O)C(=O)c3cc(OC(F)(F)F)ccc32)cc1 [VU0238429]
- Ki: 159 nM
